Data as given in patent publication US9481673B2, “6-alkynyl-pyridine derivatives” (Boehringer Ingelheim International GmbH, priority 2014, dated 2016).
In brackets after ≈: the same amount, converted by molar mass.

Legend:
[1] = biological target: cIAP1 BIR3 (Homo sapiens (Human), UniProt Q13490); assay: cIAP1 BIR3 binding assay (DELFIA), BIR3-SMAC peptide interaction; settings: (S)-isomers; BIR3 domain 10 nM, SMAC peptide 10 nM; read-out: cIAP1 BIR-3 IC50
[2] = biological target: P450 2C19 (Homo sapiens (Human), UniProt P33261); assay: Cytochrome P450 isoenzyme inhibition assay, hydroxylation of Mephenytoin; assay type: in vitro ADME; settings: (S)-isomers; human liver microsomes, 37° C.
[3] = biological target: P450 2C8 (Homo sapiens (Human), UniProt P10632); assay: Cytochrome P450 isoenzyme inhibition assay, deethylation of Amodiaquine; assay type: in vitro ADME; settings: (S)-isomers; human liver microsomes, 37° C.
[4] = biological target: P450 2C9 (Homo sapiens (Human), UniProt P11712); assay: Cytochrome P450 isoenzyme inhibition assay, hydroxylation of Diclofenac; assay type: in vitro ADME; settings: (S)-isomers; human liver microsomes, 37° C.
[5] = biological target: P450 3A4 (Homo sapiens (Human), UniProt P08684); assay: Cytochrome P450 isoenzyme inhibition assay, hydroxylation of Midazolam; assay type: in vitro ADME; settings: (S)-isomers; human liver microsomes, 37° C.
[6] = Solubility measurement (DMSO solution precipitation method); assay type: physicochemical; settings: aqueous buffer, kinetic from dmso stock; (S)-isomers; McIlvaine buffer pH 6.8, 24 h shaking at ambient temperature; read-out: Sol pH 6.8

IC50 [1] [µM]	IC50 [2] [µM]	IC50 [3] [µM]	IC50 [4] [µM]	IC50 [5] [µM]	solubility kinetic at 24 h [6] [µg/mL]	Compound
0.001	> 50	11	38	> 50	35 (≈ 60.2 µM)	CN[C@@H](C)C(=O)Nc1ccc(-c2c(-c3cccnc3OC)nc3cc(C)ccn23)c(C#Cc2ccc3c(C)nccc3c2)n1 [(S)-1, (2S)-N-{5-[2-(2-methoxypyridin-3-yl)-7-methylimidazo[1,2-a]pyridin-3-yl]-6-[2-(1-methylisoquinolin-6-yl)ethynyl]pyridin-2-yl}-2-(methyl-amino)propanamide]
0.001	> 50	14	> 50	> 50	1 (≈ 1.8 µM)	CN[C@@H](C)C(=O)Nc1ccc(-c2c(-c3cnn(C)c3)nc3cc(C)ccn23)c(C#Cc2ccc3c(C)nccc3c2)n1 [(S)-3, (2S)-N-{5-[7-methyl-2-(1-methyl-1H-pyrazol-4-yl)-imidazo[1,2-a]pyridin-3-yl]-6-[2-(1-methyl-isoquinolin-6-yl)-ethynyl]pyridin-2-yl}-2-(methylamino)-propanamide]
0.001	36	9.8	27	> 50	39 (≈ 70.3 µM)	CN[C@@H](C)C(=O)Nc1ccc(-c2c(-c3cncn3C)nc3cc(C)ccn23)c(C#Cc2ccc3c(C)nccc3c2)n1 [(S)-4, (2S)-N-{5-[7-methyl-2-(1-methyl-1H-imidazol-5-yl)-imidazo[1,2-a]pyridin-3-yl]-6-[2-(1-methyl-isoquinolin-6-yl)-ethynyl]pyridin-2-yl}-2-(methylamino)-propanamide]
0.002	> 50	1.3	> 50	> 50	< 1	CN[C@@H](C)C(=O)Nc1ccc(-c2c(-c3cccnc3C)nc3cc(C)ccn23)c(C#Cc2ccc3c(C)nccc3c2)n1 [(S)-5, (2S)-N-{5-[7-methyl-2-(2-methylpyridin-3-yl)imidazo[1,2-a]-pyridin-3-yl]-6-[2-(1-methylisoquinolin-6-yl)ethynyl]pyridin-2-yl}-2-(methylamino)-propanamide]
0.001	> 50	25	> 50	> 50	1 (≈ 1.77 µM)	CN[C@@H](C)C(=O)Nc1ccc(-c2c(-c3ccc(C)nc3)nc3cc(C)ccn23)c(C#Cc2ccc3c(C)nccc3c2)n1 [(S)-6, (2S)-N-{5-[7-methyl-2-(6-methylpyridin-3-yl)imidazo[1,2-a]-pyridin-3-yl]-6-[2-(1-methylisoquinolin-6-yl)ethynyl]pyridin-2-yl}-2-(methylamino)-propanamide]
0.001	> 50	> 50	> 50	> 50	< 1	CN[C@@H](C)C(=O)Nc1ccc(-c2c(-c3cnc(C)nc3)nc3cc(C)ccn23)c(C#Cc2ccc3c(C)nccc3c2)n1 [(S)-7, (2S)-N-{5-[7-methyl-2-(2-methylpyrimidin-5-yl)imidazo[1,2-a]-pyridin-3-yl]-6-[2-(1-methylisoquinolin-6-yl)ethynyl]pyridin-2-yl}-2-(methylamino)-propanamide]
0.001	38	1.6	> 50	> 50	< 1	CN[C@@H](C)C(=O)Nc1ccc(-c2c(-c3ccnc(OC)c3)nc3cc(C)ccn23)c(C#Cc2ccc3c(C)nccc3c2)n1 [(S)-8, (2S)-N-{5-[2-(2-methoxypyridin-4-yl)-7-methylimidazo[1,2-a]pyridin-3-yl]-6-[2-(1-methylisoquinolin-6-yl)ethynyl]pyridin-2-yl}-2-(methyl-amino)propanamide]
0.001	> 50	15	> 50	> 50	2 (≈ 3.44 µM)	CN[C@@H](C)C(=O)Nc1ccc(-c2c(-c3ccc(OC)nc3)nc3cc(C)ccn23)c(C#Cc2ccc3c(C)nccc3c2)n1 [(S)-9, (2S)-N-{5-[2-(6-methoxypyridin-3-yl)-7-methylimidazo[1,2-a]pyridin-3-yl]-6-[2-(1-methylisoquinolin-6-yl)ethynyl]pyridin-2-yl}-2-(methyl-amino)propanamide]
0.001	> 50	9.3	–	> 50	35 (≈ 58.6 µM)	CN[C@@H](C)C(=O)Nc1ccc(-c2c(-c3cccnc3OC)nc3cc(C)ccn23)c(C#Cc2ccc3c(ccc(=O)n3C)c2)n1 [(S)-10, (2S)-N-{5-[2-(2-methoxypyridin-3-yl)-7-methylimidazo[1,2-a]pyridin-3-yl]-6-[2-(1-methyl-2-oxo-1,2-dihydroquinolin-6-yl)-ethynyl]pyridin-2-yl}-2-(methylamino)-propanamide]
0.001	14	15	> 50	46	–	CN[C@@H](C)C(=O)Nc1ccc(-c2c(-c3ccnc(C)c3)nc3cc(C)ccn23)c(C#Cc2ccccc2)n1 [(S)-11, (2S)-N-{5-[7-methyl-2-(2-methylpyridin-4-yl)imidazo[1,2-a]-pyridin-3-yl]-6-(2-phenylethynyl)pyridin-2-yl}-2-(methyl-amino)propanamide]
0.002	> 50	> 50	> 50	> 50	< 1	CN[C@@H](C)C(=O)Nc1ccc(-c2c(-c3cnc(C)nc3)nc3cc(C)ccn23)c(C#Cc2ccc3c(ccc(=O)n3C)c2)n1 [(S)-12, (2S)-N-{5-[7-methyl-2-(2-methylpyrimidin-5-yl)imidazo[1,2-a]-pyridin-3-yl]-6-[2-(1-methyl-2-oxo-1,2-dihydroquinolin-6-yl)-ethynyl]pyridin-2-yl}-2-(methylamino)-propanamide]
0.001	–	4.5	> 50	> 50	< 1	CN[C@@H](C)C(=O)Nc1ccc(-c2c(-c3ccnc(OC)c3)nc3cc(C)ccn23)c(C#Cc2ccc3c(ccc(=O)n3C)c2)n1 [(S)-13, (2S)-N-{5-[2-(2-methoxypyridin-4-yl)-7-methylimidazo[1,2-a]pyridin-3-yl]-6-[2-(1-methyl-2-oxo-1,2-dihydroquinolin-6-yl)-ethynyl]pyridin-2-yl}-2-(methylamino)-propanamide]
0.001	> 50	> 50	> 50	> 50	< 1	CN[C@@H](C)C(=O)Nc1ccc(-c2c(-c3ccc(OC)nc3)nc3cc(C)ccn23)c(C#Cc2ccc3c(ccc(=O)n3C)c2)n1 [(S)-14, (2S)-N-{5-[2-(6-methoxypyridin-3-yl)-7-methylimidazo[1,2-a]pyridin-3-yl]-6-[2-(1-methyl-2-oxo-1,2-dihydroquinolin-6-yl)-ethynyl]pyridin-2-yl}-2-(methylamino)-propanamide]
–	> 50	3.4	21	> 50	17 (≈ 29.9 µM)	CN[C@@H](C)C(=O)Nc1ccc(-c2c(-c3cccnc3OC)nc3ccccn23)c(C#Cc2ccc3c(C)nccc3c2)n1 [(S)-16, (2S)-N-{5-[2-(2-methoxypyridin-3-yl)imidazo[1,2-a]-pyridin-3-yl]-6-[2-(1-methylisoquinolin-6-yl)ethynyl]pyridin-2-yl}-2-(methylamino)-propanamide]
